| logP | SMILES |
| --- | --- |
| 1.11 | CN[C@H](C)C(=O)NCc1ccc(OC)cc1 |
| 2.94 | CC(C(=O)NCc1ccccc1)N(C)C(=O)OC(C)(C)C (centres undefined) |
| 1.63 | O=C(NC(O)C(=O)O)OCc1ccccc1 (centres undefined) |
| 1.73 | CC(C(=O)NCc1ccccc1)N(C)C (centres undefined) |
| -0.55 | CC(=O)N(C)C(C)C(=O)NCc1ccco1 (centres undefined) |
| 0.55 | CCCCNC(=O)C(C)NC(C)=O (centres undefined) |
| 1.85 | CN1CSCC1C(=O)NCc1ccccc1 (centres undefined) |
| 3.72 | CC(=O)NC(Cc1ccc(Cl)cc1)C(=O)NCc1ccccc1 (centres undefined) |
| 1.01 | CNCCC(=O)NCc1ccccc1 |
| 1.48 | CC(=O)N(C)C(C)C(=O)NCc1ccccc1 (centres undefined) |
| 2.17 | CC(=O)N[C@@H](Cc1c[nH]c2ccccc12)C(=O)NCc1ccccc1 |
| 1.32 | CC(=O)NC(C)(C)C(=O)NCc1ccccc1 |
| -0.66 | CNC(C)C(=O)NCc1ccco1 (centres undefined) |

Continued, molecule first:

| SMILES | logP |
| --- | --- |
| CC(NC(=O)OCc1ccccc1)C(=O)NCc1ccccc1 (centres undefined) | 3.52 |
| CC(=O)NC(CC(C)C)C(=O)NCc1ccccc1 (centres undefined) | 2.31 |
| CC(=O)NC(C)C(=O)NCC(C)C (centres undefined) | 0.56 |
| CC(=O)N(C)CCC(=O)NCc1ccccc1 | 1.12 |
| CC(=O)NC(CCCNC(=N)N[N+](=O)[O-])C(=O)NCc1ccccc1 (centres undefined) | 0.45 |
| CC(=O)N1CSCC1C(=O)NCc1ccccc1 (centres undefined) | 1.29 |
| CC(=O)NCCC(=O)NCc1ccccc1 | 0.76 |
| O=C(NC(CCC1CCCCC1)C(=O)OCCC1CCCCC1)OCc1ccccc1 (centres undefined) | 6.39 |
| CC(=O)N(C)CC(=O)NCc1ccccc1 | 0.94 |
| CNC(C)C(=O)NCc1cccnc1 (centres undefined) | 0.05 |
| CC(NC(=O)OCc1ccccc1)C(=O)OCc1ccccc1 (centres undefined) | 3.84 |
| CC(=O)NC(C)C(=O)NCCC(C)C (centres undefined) | 0.88 |
| CN[C@H](C)C(=O)NCc1ccc(F)cc1 | 1.51 |
| CCNC(C)C(=O)NCc1ccccc1 (centres undefined) | 1.71 |
| CC(=O)N1CCC[C@@H]1C(=O)NCc1ccccc1 | 1.46 |
| CC(=O)NCCCC(=O)NCc1ccccc1 | 1.01 |
